# Data: US6387389B1 (priority 1996, dated 2002)
# What was measured:
# [1] = system: dopamine transporter versus serotonin and norepinephrine transporters; conditions: Rothman et al. (1993); cited from earlier work
# [2] = system: dopamine (DA) and serotonin (5-HT) in nucleus accumbens dialysate; experiment: In vivo microdialysis with methamphetamine challenge; parameters: species or system male Sprague-Dawley rats; conditions: 0.7 ml/kg im
# [3] = system: food-maintained and cocaine-maintained responding in rhesus monkeys; conditions: rhesus monkey, in vivo
# [4] = system: food-maintained and cocaine-maintained responding in rhesus monkeys; conditions: comparison value for the shorter-acting drug; cited from earlier work
# [5] = target: T1, reuptake of tritiated serotonin ([3H]5HT), rat whole brain minus cerebellum synaptosomes (Rattus norvegicus, UniProt P31652); format: biochemical
# T1 construct: homogenization of rat caudate (DA) or whole brain minus cerebellum (5HT); from tissue; host or cells: rat whole brain minus cerebellum, synaptosomes
# [6] = methamphetamine 1 mg/kg iv four days later, FIG. 4 (percent of baseline)
# T1 sequence (P31652 whole entry): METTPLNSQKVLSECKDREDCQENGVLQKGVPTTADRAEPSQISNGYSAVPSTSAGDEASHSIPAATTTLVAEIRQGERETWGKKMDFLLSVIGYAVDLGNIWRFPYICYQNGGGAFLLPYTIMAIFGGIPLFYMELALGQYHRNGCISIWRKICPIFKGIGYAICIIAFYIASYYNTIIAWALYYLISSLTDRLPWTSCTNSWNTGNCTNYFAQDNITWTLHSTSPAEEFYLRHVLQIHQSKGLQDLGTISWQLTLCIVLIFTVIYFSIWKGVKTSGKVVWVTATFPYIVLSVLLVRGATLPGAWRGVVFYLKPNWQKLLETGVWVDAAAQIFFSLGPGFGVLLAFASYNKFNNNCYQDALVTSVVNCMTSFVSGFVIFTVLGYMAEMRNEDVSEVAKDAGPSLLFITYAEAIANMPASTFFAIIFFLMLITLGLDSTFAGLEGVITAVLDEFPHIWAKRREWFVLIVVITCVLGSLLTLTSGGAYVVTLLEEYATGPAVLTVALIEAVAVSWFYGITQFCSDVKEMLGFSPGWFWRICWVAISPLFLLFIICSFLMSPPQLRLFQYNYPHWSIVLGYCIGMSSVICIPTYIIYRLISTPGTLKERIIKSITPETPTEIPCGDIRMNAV
compound,measurement,setting,value
"c1ccc(CCCN2CCCN(CCOC(c3ccccc3)c3ccccc3)CC2)cc1 [LR1111, 1-[2-(diphenyl-methoxy)-ethyl]-4-(3-phenylpropyl)homopiperazine]",selectivity for the dopamine transporter over the serotonin and norepinephrine transporters,[1],"over 4,000 fold"
"CCCCCCCCCC(=O)OC(CCN1CCN(CCOC(c2ccc(F)cc2)c2ccc(F)cc2)CC1)c1ccccc1 (racemic) [compound 5*, (±)1-[2-Bis-(p-fluorophenyl)methoxy]ethyl]-4-(3-hyroxy-3-phenylpropyl)piperazine decanoate ester]",increase of basal levels of dopamine (DA),"[2]; four days after injection, FIG. 3",two-fold
same,ability of methamphetamine to increase dopamine levels,"[2]; methamphetamine 1 mg/kg iv four days later, FIG. 3 (picogram/fraction)",essentially eliminated
same,ability of methamphetamine to increase dopamine,[2]; [6],blunted
same,ability of methamphetamine to increase serotonin (5-HT),[2]; [6],blunted
same,duration of sustained and selective effect on cocaine-maintained responding,[3],almost thirty days
"Fc1ccc(C(OCCN2CCN(CCCc3ccccc3)CC2)c2ccc(F)cc2)cc1 [GBR 12909, 1-[2-[bis(4-fluorophenyl)methoxy]ethyl]-4-[3-phenylpropyl]piperazine]",duration of effect on cocaine-maintained responding,[4],4 to 6 h
NCCc1c[nH]c2ccc(O)cc12 [[^3H]5HT],Km,[5],0.0174 ± 0.0008 µM
